Assay results: patent US20230255953A1, “USE OF ROLUPERIDONE IN PREVENTING RELAPSE IN SCHIZOPHRENIA PATIENTS” (Minerva Neurosciences, Inc., priority 2022, published 2023)

Tested on: patients with negative symptoms of schizophrenia
Assay: Integrated analysis of Studies #1 and #2 (pooled ITT): PANSS-derived scores (NSFS, total, positive and negative subscales), DB, OL and whole study
Format: in vivo, human
Parameters: key to NSFS Score change from Baseline, Median: change from Baseline in PANSS NSFS points; higher score = more severe
Details: for NSFS Score change from Baseline, LS mean (SE) / NSFS Score change from Baseline, Mean (SD) / NSFS Score change from Baseline, Median / NSFS Score, Difference (95% CI) in LS mean (vs placebo) / PANSS Negative Subscale Score change from Baseline, LS mean (SE) / PANSS Negative Subscale Score change from Baseline, Mean (SD) / PANSS Negative Subscale Score change from Baseline, Median / PANSS Negative Subscale Score, Difference (95% CI) in LS mean (vs placebo) / PANSS Total Score change from Baseline, LS mean (SE) / PANSS Total Score change from Baseline, Mean (SD) / PANSS Total Score change from Baseline, Median / PANSS Total Score, Difference (95% CI) in LS mean (vs placebo): DB
Description: The primary integrated analysis of the efficacy of Roluperidone compared with placebo for the treatment of negative symptoms of schizophrenia is based on the change from Baseline in the PANSS Marder's negative symptoms factor score (in this document referred to as NSFS) to Week 12. Efficacy is also supported by the analysis of change from Baseline in the PSP Total score and the CGI-S to Week 12.
The PANSS was assessed at the time points described in Table 4.
The PANSS-derived endpoints used in these studies and the integrated analyses are described in Table 5A and a summary of the individual PANSS items used by physicians and clinicians to measure the severity of the symptoms in a schizophrenia patient is provided in Table 5B. The scale is divided into three parts, a positive scale, which provides a “PANSS positive subscore”, a negative scale, which provides a “PANSS negative subscore”, and general psychopathology scale. The sum of these three parts provides a PANSS total score, which ranges from 30 to 210 (where higher scores indicate more severe symptoms). (See Kay, S. R., et al. “The positive and negative syndrome scale (PANSS) for schizophrenia,” Schizophr Bulletin, 13(2), 261-276 (1987) and Gopal, S., et al. “Improvement of Negative Symptoms in Schizophrenia with Paliperidone Palmitate 1-Month and 3-Month Long-Acting Injectables: Results from a Phase 3 Non-Inferiority Study” Neuropsychiatric Disease and Treatment, 681-690, DOI: 10.2147/NDT.5226296, both of which are incorporated by reference.)
The Efficacy data from Study Nos. 1 and 2 were pooled. The majority of patients in the pooled ITT population completed the DB period (502 patients overall, 66.3%), with similar rates in each treatment group (placebo: 69.8%, 32 mg Roluperidone: 65.3%, and 64 mg Roluperidone: 63.8%) (Table 12). The majority (62.7%) of those who completed the DB period entered the OL period. The most common reason for discontinuation during the DB period among patients overall was withdrawal of consent (15.6%), followed by adverse events (7.3%) and lack of efficacy (5.4%) (Table 12). […] Approximately twice as many patients in the Roluperidone groups (32 mg: 8.5%; 64 mg: 9.1%) discontinued due to adverse events compared with patients in the placebo group (4.3%). More patients in the placebo group discontinued due to lack of efficacy (6.7%) than in the Roluperidone groups (32 mg: 4.4%; 64 mg: 5.1%). The low number of patients who discontinued due to lack of efficacy or withdrawal of consent probably reflects a low level of worsening of positive symptoms.
The integrated analysis supporting the efficacy of Roluperidone as a treatment for the negative symptoms of schizophrenia in adults is presented below.

Substance: 1H-Isoindol-1-one,2-[ [1-[2-(4-fluorophenyl)-2-oxoethyl]-4-piperidinyl]methyl]-2,3-dihydro-, hydrochloride, hydrate (1:1:2) [Roluperidone]
- Mean NSFS score improvements, persistence in OL period (32 mg and 64 mg groups, OL period incl. 2 weeks after end of treatment, pooled): sustained and continued during the OL period
- NSFS Score change from Baseline, LS mean (SE) (32 mg, Week 2, pooled ITT): −1.1 (0.15)
- NSFS Score change from Baseline, Mean (SD) (32 mg, Week 2, pooled ITT): −1.1 (2.15)
- NSFS Score change from Baseline, Median (32 mg, Week 2, pooled ITT): −1.0
- NSFS Score, Difference (95% CI) in LS mean (vs placebo) (32 mg, Week 2, pooled ITT): −0.2
- PANSS Negative Subscale Score change from Baseline, LS mean (SE) (32 mg, Week 2, pooled ITT): −1.2 (0.14)
- PANSS Negative Subscale Score change from Baseline, Mean (SD) (32 mg, Week 2, pooled ITT): −1.2 (2.11)
- PANSS Negative Subscale Score change from Baseline, Median (32 mg, Week 2, pooled ITT): −1.0
- PANSS Negative Subscale Score, Difference (95% CI) in LS mean (vs placebo) (32 mg, Week 2, pooled ITT): −0.1
- PANSS Total Score change from Baseline, LS mean (SE) (32 mg, Week 2, pooled ITT): −1.7 (0.44)
- PANSS Total Score change from Baseline, Mean (SD) (32 mg, Week 2, pooled ITT): −1.8 (6.62)
- PANSS Total Score change from Baseline, Median (32 mg, Week 2, pooled ITT): −2.0
- PANSS Total Score, Difference (95% CI) in LS mean (vs placebo) (32 mg, Week 2, pooled ITT): −0.4
- PANSS Positive Subscale Score change from Baseline, LS mean (SE) (32 mg, Week 2, pooled ITT): 0.3 (0.17)
- PANSS Positive Subscale Score change from Baseline, Mean (SD) (32 mg, Week 2, pooled ITT): 0.2 (2.71)
- PANSS Positive Subscale Score change from Baseline, Median (32 mg, Week 2, pooled ITT): 0.0
- PANSS Positive Subscale Score, Difference (95% CI) in LS mean (vs placebo) (32 mg, Week 2, pooled ITT): 0.3
- NSFS Score change from Baseline, LS mean (SE) (32 mg, Week 4, pooled ITT): −2.0 (0.19)
- NSFS Score change from Baseline, Mean (SD) (32 mg, Week 4, pooled ITT): −2.2 (2.53)
- NSFS Score change from Baseline, Median (32 mg, Week 4, pooled ITT): −2.0
- NSFS Score, Difference (95% CI) in LS mean (vs placebo) (32 mg, Week 4, pooled ITT): −0.7
- PANSS Negative Subscale Score change from Baseline, LS mean (SE) (32 mg, Week 4, pooled ITT): −2.1 (0.19)
- PANSS Negative Subscale Score change from Baseline, Mean (SD) (32 mg, Week 4, pooled ITT): −2.3 (2.67)
- PANSS Negative Subscale Score change from Baseline, Median (32 mg, Week 4, pooled ITT): −2.0
- PANSS Negative Subscale Score, Difference (95% CI) in LS mean (vs placebo) (32 mg, Week 4, pooled ITT): −0.6
- PANSS Total Score change from Baseline, LS mean (SE) (32 mg, Week 4, pooled ITT): −3.6 (0.53)
- PANSS Total Score change from Baseline, Mean (SD) (32 mg, Week 4, pooled ITT): −4.4 (7.09)
- PANSS Total Score change from Baseline, Median (32 mg, Week 4, pooled ITT): −4.0
- PANSS Total Score, Difference (95% CI) in LS mean (vs placebo) (32 mg, Week 4, pooled ITT): −1.6
- PANSS Positive Subscale Score change from Baseline, LS mean (SE) (32 mg, Week 4, pooled ITT): −0.1 (0.18)
- PANSS Positive Subscale Score change from Baseline, Mean (SD) (32 mg, Week 4, pooled ITT): −0.4 (2.49)
- PANSS Positive Subscale Score change from Baseline, Median (32 mg, Week 4, pooled ITT): 0.0
- PANSS Positive Subscale Score, Difference (95% CI) in LS mean (vs placebo) (32 mg, Week 4, pooled ITT): −0.3
- NSFS Score change from Baseline, LS mean (SE) (32 mg, Week 8, pooled ITT): −3.0 (0.23)
- NSFS Score change from Baseline, Mean (SD) (32 mg, Week 8, pooled ITT): −3.2 (3.21)
- NSFS Score change from Baseline, Median (32 mg, Week 8, pooled ITT): −3.0
- NSFS Score, Difference (95% CI) in LS mean (vs placebo) (32 mg, Week 8, pooled ITT): −0.8
- PANSS Negative Subscale Score change from Baseline, LS mean (SE) (32 mg, Week 8, pooled ITT): −3.1 (0.24)
- PANSS Negative Subscale Score change from Baseline, Mean (SD) (32 mg, Week 8, pooled ITT): −3.2 (3.46)
- PANSS Negative Subscale Score change from Baseline, Median (32 mg, Week 8, pooled ITT): −3.0
- PANSS Negative Subscale Score, Difference (95% CI) in LS mean (vs placebo) (32 mg, Week 8, pooled ITT): −0.7
- PANSS Total Score change from Baseline, LS mean (SE) (32 mg, Week 8, pooled ITT): −4.9 (0.66)
- PANSS Total Score change from Baseline, Mean (SD) (32 mg, Week 8, pooled ITT): −6.2 (7.89)
- PANSS Total Score change from Baseline, Median (32 mg, Week 8, pooled ITT): −6.0
- PANSS Total Score, Difference (95% CI) in LS mean (vs placebo) (32 mg, Week 8, pooled ITT): −1.7
- PANSS Positive Subscale Score change from Baseline, LS mean (SE) (32 mg, Week 8, pooled ITT): −0.1 (0.20)
- PANSS Positive Subscale Score change from Baseline, Mean (SD) (32 mg, Week 8, pooled ITT): −0.4 (2.50)
- PANSS Positive Subscale Score change from Baseline, Median (32 mg, Week 8, pooled ITT): 0.0
- PANSS Positive Subscale Score, Difference (95% CI) in LS mean (vs placebo) (32 mg, Week 8, pooled ITT): −0.3
- NSFS Score change from Baseline, LS mean (SE) (32 mg, Week 12, pooled ITT): −3.5 (0.26)
- NSFS Score change from Baseline, Mean (SD) (32 mg, Week 12, pooled ITT): −3.6 (3.08)
- NSFS Score change from Baseline, Median (32 mg, Week 12, pooled ITT): −4.0
- NSFS Score, Difference (95% CI) in LS mean (vs placebo) (32 mg, Week 12, pooled ITT): −0.8
- PANSS Negative Subscale Score change from Baseline, LS mean (SE) (32 mg, Week 12, pooled ITT): −3.6 (0.27)
- PANSS Negative Subscale Score change from Baseline, Mean (SD) (32 mg, Week 12, pooled ITT): −3.6 (3.37)
- PANSS Negative Subscale Score change from Baseline, Median (32 mg, Week 12, pooled ITT): −3.0
- PANSS Negative Subscale Score, Difference (95% CI) in LS mean (vs placebo) (32 mg, Week 12, pooled ITT): −0.7
- PANSS Total Score change from Baseline, LS mean (SE) (32 mg, Week 12, pooled ITT): −5.5 (0.71)
- PANSS Total Score change from Baseline, Mean (SD) (32 mg, Week 12, pooled ITT): −6.9 (7.77)
- PANSS Total Score change from Baseline, Median (32 mg, Week 12, pooled ITT): −7.0
- PANSS Total Score, Difference (95% CI) in LS mean (vs placebo) (32 mg, Week 12, pooled ITT): −1.9
- NSFS Emotional Experience Score, Change from Baseline (LS Means [SEM]) (32 mg, Week 12, ITT): −1.3 (0.13)
- NSFS Emotional Expression Score, Change from Baseline (LS Means [SEM]) (32 mg, Week 12, ITT): −2.2 (0.16)
- NSFS, Change from Baseline (LS Means [SEM]) (32 mg, Week 12, ITT): −3.5 (0.26)
- PANSS General Psychopathology Subscale, Change from Baseline (LS Means [SEM]) (32 mg, Week 12, ITT): −2.0 (0.37)
- PANSS Negative Symptoms Subscale, Change from Baseline (LS Means [SEM]) (32 mg, Week 12, ITT): −3.6 (0.27)
- PANSS Positive Symptoms Subscale, Change from Baseline (LS Means [SEM]) (32 mg, Week 12, ITT): −0.1 (0.21)
- PANSS Total Score, Change from Baseline (LS Means [SEM]) (32 mg, Week 12, ITT): −5.5 (0.71)
- Patients with high improvement in NSFS (magnitude of change >8) (32 mg, Week 12, pooled): 5%
- Patients with moderate improvement in NSFS (magnitude of change 6-8) (32 mg, Week 12, pooled): 18%
- Patients with moderate or high improvement in NSFS, total (32 mg, Week 12, pooled): 23%
- NSFS, LS mean decrease from Baseline compared with placebo (32 mg, Week 12, pooled ITT): −3.5
- PANSS Positive Subscale Score change from Baseline, LS mean (SE) (32 mg, Week 12, pooled ITT): −0.1 (0.21)
- PANSS Positive Subscale Score change from Baseline, Mean (SD) (32 mg, Week 12, pooled ITT): −0.6(2.37)
- PANSS Positive Subscale Score change from Baseline, Median (32 mg, Week 12, pooled ITT): 0.0
- PANSS Positive Subscale Score, Difference (95% CI) in LS mean (vs placebo) (32 mg, Week 12, pooled ITT): −0.3
- PANSS negative subscale score, LS mean change from Baseline compared with placebo (32 mg, Week 12, pooled ITT): −0.7
